# Patent US20260070945A1, “MACROCYCLIC IMMUNOMODULATORS” (Bristol-Myers Squibb Company, priority 2022, published 2026)
# *1 amine or outer side, *2 acyl side, *3 side chain or, on linkers, in order; H or OH if unused. Where a SMILES comes first, the peptide text is derived from it. Bridges are numbered along the chain shown (N, C = ends). [ ]: non-standard residue; d: D form. The star is where a group is joined. Phe(3-CF3) = N[C@@H](Cc1cccc(C(F)(F)F)c1)C(=O)O; Ala(morpholin-4-yl) = N[C@@H](CN1CCOCC1)C(=O)O; Phe(4-COOH) = N[C@@H](Cc1ccc(C(=O)O)cc1)C(=O)O; Bip = N[C@@H](Cc1ccc(-c2ccccc2)cc1)C(=O)O; γGlu = O=C(O)[C@H](CCC(=O)[*:2])N[*:1]; Abu(3S-NH2) = C[C@H](N)[C@H](N)C(=O)O; NH(CH2)12COOH = O=C(O)CCCCCCCCCCCCN*; Val(3-OH) = CC(C)(O)[C@H](N)C(=O)O; Cha = N[C@@H](CC1CCCCC1)C(=O)O; Cit = NC(=O)NCCC[C@H](N)C(=O)O; Carboxymethyl = O=C(O)C*; NMeA = CN[C@@H](C)C(=O)O; Dab = NCC[C@H](N)C(=O)O; AEEA = NCCOCCOCC(=O)O
# Target: T1, PD-1/PD-L1 interaction (PE-labeled human PD-L1-Ig binding to Jurkat cell line over-expressing human PD-1) (Homo sapiens, UniProt Q15116)
# T1 construct: expressed in transfected cells; host or cells: Jurkat
# Assay: Jurkat-PD-1 Cell Binding High-Content Screening Assay (CBA)
# Details: Jurkat-hPD-1 cells, PE-labeled PD-L1-Ig 20 nM final; read-out: Jurkat HPD1 PDL1 IC50
# How it was run: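 Jurkat cells overexpressing human PD-1 (8×10^3/well, DMEM + 10% FCS) preincubated with compound 2 h at 37 °C, then PE-labelled human PD-L1-Ig (20 nM final) for 1 h. Cells fixed in paraformaldehyde with Hoechst 33342; bound PD-L1 quantified by high-content imaging.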
# T1 sequence (Q15116 25-288): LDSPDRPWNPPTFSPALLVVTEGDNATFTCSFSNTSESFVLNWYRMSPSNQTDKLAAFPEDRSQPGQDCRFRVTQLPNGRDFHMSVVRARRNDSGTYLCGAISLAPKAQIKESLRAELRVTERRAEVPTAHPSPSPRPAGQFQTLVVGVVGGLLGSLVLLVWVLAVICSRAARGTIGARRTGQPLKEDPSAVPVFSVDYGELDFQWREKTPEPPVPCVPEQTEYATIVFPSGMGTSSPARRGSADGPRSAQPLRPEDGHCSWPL
row,Compound,IC50 [nM]
1,CC(C)C[C@H]1NC(=O)[C@H](C)N(C)C(=O)[C@H](CCC(N)=O)NC(=O)[C@H](Cc2ccc(-c3ccccc3)cc2)NC(=O)[C@H](Cc2ccc(C(=O)O)cc2)NC(=O)[C@H](Cc2cccc(C(F)(F)F)c2)NC(=O)[C@H](CC(=O)O)NC(=O)[C@H](Cc2ccc(OCC(=O)O)cc2)NC(=O)[C@H](CN2CCOCC2)NC(=O)CSC[C@@H](C(=O)N[C@@H](CCN)C(=O)NCCCCCCCCCCCCC(=O)O)NC(=O)[C@H](Cc2c[nH]cn2)NC(=O)[C@H](C(C)(C)O)NC(=O)[C@H](CC2CCCCC2)NC(=O)[C@H](CCN)NC1=O [Example 1188] ({CH2CO}-[Ala(morpholin-4-yl)]Y(Carboxymethyl)D[Phe(3-CF3)][Phe(4-COOH)][Bip]Q[NMeA][dL][Dab][Cha][Val(3-OH)]HC[Dab]-{NH(CH2)12COOH}; thioether N-14),20.5
2,CC(C)C[C@H]1NC(=O)[C@H](C)N(C)C(=O)[C@H](CCC(N)=O)NC(=O)[C@H](Cc2ccc(-c3ccccc3)cc2)NC(=O)[C@H](Cc2ccc(C(=O)O)cc2)NC(=O)[C@H](Cc2cccc(C(F)(F)F)c2)NC(=O)[C@H](CC(=O)O)NC(=O)[C@H](Cc2ccc(OCC(=O)O)cc2)NC(=O)[C@H]([C@H](C)N)NC(=O)CSC[C@@H](C(=O)N[C@@H](CCN)C(=O)NCCCCCCCCCCCCC(=O)O)NC(=O)[C@H](CO)NC(=O)[C@H](C(C)(C)O)NC(=O)[C@H](CC2CCCCC2)NC(=O)[C@H](CCN)NC1=O [Example 1190] ({CH2CO}-[Abu(3S-NH2)]Y(Carboxymethyl)D[Phe(3-CF3)][Phe(4-COOH)][Bip]Q[NMeA][dL][Dab][Cha][Val(3-OH)]SC[Dab]-{NH(CH2)12COOH}; thioether N-14),18
3,CC(=O)NCCCC[C@@H]1NC(=O)[C@H](C(C)(C)O)NC(=O)[C@H](CC2CCCCC2)NC(=O)[C@H](CCN)NC(=O)[C@@H](CC(C)C)NC(=O)[C@H](C)N(C)C(=O)[C@H](CCC(N)=O)NC(=O)[C@H](Cc2ccc(-c3ccccc3)cc2)NC(=O)[C@H](Cc2ccc(C(=O)O)cc2)NC(=O)[C@H](Cc2cccc(C(F)(F)F)c2)NC(=O)[C@H](CC(=O)O)NC(=O)[C@H](Cc2ccc(OCC(=O)O)cc2)NC(=O)[C@H]([C@H](C)N)NC(=O)CSC[C@@H](C(=O)N[C@@H](CCN)C(=O)NCCCCCCCCCCCCC(=O)O)NC1=O [Example 1191] ({CH2CO}-[Abu(3S-NH2)]Y(Carboxymethyl)D[Phe(3-CF3)][Phe(4-COOH)][Bip]Q[NMeA][dL][Dab][Cha][Val(3-OH)]K(Ac)C[Dab]-{NH(CH2)12COOH}; thioether N-14),7.4
4,CC(C)C[C@H]1NC(=O)[C@H](C)N(C)C(=O)[C@H](CCC(N)=O)NC(=O)[C@H](Cc2ccc(-c3ccccc3)cc2)NC(=O)[C@H](Cc2ccc(C(=O)O)cc2)NC(=O)[C@H](Cc2cccc(C(F)(F)F)c2)NC(=O)[C@H](CC(=O)O)NC(=O)[C@H](Cc2ccc(OCC(=O)O)cc2)NC(=O)[C@H]([C@H](C)N)NC(=O)CSC[C@@H](C(=O)N[C@@H](CCN)C(=O)NCCCCCCCCCCCCC(=O)O)NC(=O)[C@H](Cc2c[nH]cn2)NC(=O)[C@H](C(C)(C)O)NC(=O)[C@H](CC2CCCCC2)NC(=O)[C@H](CCN)NC1=O [Example 1192] ({CH2CO}-[Abu(3S-NH2)]Y(Carboxymethyl)D[Phe(3-CF3)][Phe(4-COOH)][Bip]Q[NMeA][dL][Dab][Cha][Val(3-OH)]HC[Dab]-{NH(CH2)12COOH}; thioether N-14),17.5
5,CC(C)C[C@H]1NC(=O)[C@H](C)N(C)C(=O)[C@H](CCCNC(N)=O)NC(=O)[C@H](Cc2ccc(-c3ccccc3)cc2)NC(=O)[C@H](Cc2ccc(C(=O)O)cc2)NC(=O)[C@H](Cc2cccc(C(F)(F)F)c2)NC(=O)[C@H](CC(=O)O)NC(=O)[C@H](Cc2ccc(OCC(=O)O)cc2)NC(=O)[C@H](CN2CCOCC2)NC(=O)CSC[C@@H](C(=O)N[C@@H](CCN)C(=O)NCCCCCCCCCCCCC(=O)O)NC(=O)[C@H](Cc2c[nH]cn2)NC(=O)[C@H](C(C)(C)O)NC(=O)[C@H](CC2CCCCC2)NC(=O)[C@H](CCN)NC1=O [Example 1193] ({CH2CO}-[Ala(morpholin-4-yl)]Y(Carboxymethyl)D[Phe(3-CF3)][Phe(4-COOH)][Bip][Cit][NMeA][dL][Dab][Cha][Val(3-OH)]HC[Dab]-{NH(CH2)12COOH}; thioether N-14),15.6
6,CC(C)C[C@H]1NC(=O)[C@H](C)N(C)C(=O)[C@H](CCCNC(N)=O)NC(=O)[C@H](Cc2ccc(-c3ccccc3)cc2)NC(=O)[C@H](Cc2ccc(C(=O)O)cc2)NC(=O)[C@H](Cc2cccc(C(F)(F)F)c2)NC(=O)[C@H](CC(=O)O)NC(=O)[C@H](Cc2ccc(OCC(=O)O)cc2)NC(=O)[C@H]([C@H](C)N)NC(=O)CSC[C@@H](C(=O)N[C@@H](CCN)C(=O)NCCCCCCCCCCCCC(=O)O)NC(=O)[C@H](CCC(=O)O)NC(=O)[C@H](C(C)C)NC(=O)[C@H](CC2CCCCC2)NC(=O)[C@H](CCN)NC1=O [Example 1194] ({CH2CO}-[Abu(3S-NH2)]Y(Carboxymethyl)D[Phe(3-CF3)][Phe(4-COOH)][Bip][Cit][NMeA][dL][Dab][Cha]VEC[Dab]-{NH(CH2)12COOH}; thioether N-14),7.9
7,CC(C)C[C@H]1NC(=O)[C@H](C)N(C)C(=O)[C@H](CCCNC(N)=O)NC(=O)[C@H](Cc2ccc(-c3ccccc3)cc2)NC(=O)[C@H](Cc2ccc(C(=O)O)cc2)NC(=O)[C@H](Cc2cccc(C(F)(F)F)c2)NC(=O)[C@H](CC(=O)O)NC(=O)[C@H](Cc2ccc(OCC(=O)O)cc2)NC(=O)[C@H]([C@H](C)N)NC(=O)CSC[C@@H](C(=O)N[C@@H](CCN)C(=O)NCCCCCCCCCCCCC(=O)O)NC(=O)[C@H](Cc2c[nH]cn2)NC(=O)[C@H](C(C)(C)O)NC(=O)[C@H](CC2CCCCC2)NC(=O)[C@H](CCN)NC1=O [Example 1197] ({CH2CO}-[Abu(3S-NH2)]Y(Carboxymethyl)D[Phe(3-CF3)][Phe(4-COOH)][Bip][Cit][NMeA][dL][Dab][Cha][Val(3-OH)]HC[Dab]-{NH(CH2)12COOH}; thioether N-14),18.9
8,CC(C)C[C@H]1NC(=O)[C@H](C)N(C)C(=O)[C@H](Cc2ccc(C(=O)O)cc2)NC(=O)[C@H](Cc2ccc(-c3ccccc3)cc2)NC(=O)[C@H](Cc2ccc(C(=O)O)cc2)NC(=O)[C@H](Cc2cccc(C(F)(F)F)c2)NC(=O)[C@H](CC(=O)O)NC(=O)[C@H](Cc2ccc(OCC(=O)O)cc2)NC(=O)[C@H](CN2CCOCC2)NC(=O)CSC[C@@H](C(=O)N[C@@H](CCN)C(=O)NCCCCCCCCCCCCC(=O)O)NC(=O)[C@H](CCC(=O)O)NC(=O)[C@H](C(C)C)NC(=O)[C@H](CC2CCCCC2)NC(=O)[C@H](CCN)NC1=O [Example 1198] ({CH2CO}-[Ala(morpholin-4-yl)]Y(Carboxymethyl)D[Phe(3-CF3)][Phe(4-COOH)][Bip][Phe(4-COOH)][NMeA][dL][Dab][Cha]VEC[Dab]-{NH(CH2)12COOH}; thioether N-14),19.6
9,CC(C)C[C@H]1NC(=O)[C@H](C)N(C)C(=O)[C@H](Cc2ccc(C(=O)O)cc2)NC(=O)[C@H](Cc2ccc(-c3ccccc3)cc2)NC(=O)[C@H](Cc2ccc(C(=O)O)cc2)NC(=O)[C@H](Cc2cccc(C(F)(F)F)c2)NC(=O)[C@H](CC(=O)O)NC(=O)[C@H](Cc2ccc(OCC(=O)O)cc2)NC(=O)[C@H]([C@H](C)N)NC(=O)CSC[C@@H](C(=O)N[C@@H](CCN)C(=O)NCCCCCCCCCCCCC(=O)O)NC(=O)[C@H](CCC(=O)O)NC(=O)[C@H](C(C)C)NC(=O)[C@H](CC2CCCCC2)NC(=O)[C@H](CCN)NC1=O [Example 1199] ({CH2CO}-[Abu(3S-NH2)]Y(Carboxymethyl)D[Phe(3-CF3)][Phe(4-COOH)][Bip][Phe(4-COOH)][NMeA][dL][Dab][Cha]VEC[Dab]-{NH(CH2)12COOH}; thioether N-14),18
10,CC(C)C[C@H]1NC(=O)[C@H](C)N(C)C(=O)[C@H](CCC(N)=O)NC(=O)[C@H](Cc2ccc(-c3ccccc3)cc2)NC(=O)[C@H](Cc2ccc(C(=O)O)cc2)NC(=O)[C@H](Cc2cccc(C(F)(F)F)c2)NC(=O)[C@H](CC(=O)O)NC(=O)[C@H](Cc2ccc(OCC(=O)O)cc2)NC(=O)[C@H]([C@H](C)N)NC(=O)CSC[C@@H](C(=O)N[C@@H](CCN)C(=O)NCCOCCOCC(=O)N[C@@H](CCC(=O)NCCOCCOCC(=O)NCCCCCCCCCCCCC(=O)O)C(=O)O)NC(=O)[C@H](CCC(=O)O)NC(=O)[C@H](C(C)C)NC(=O)[C@H](CC2CCCCC2)NC(=O)[C@H](CCN)NC1=O [Example 1200] ({CH2CO}-[Abu(3S-NH2)]Y(Carboxymethyl)D[Phe(3-CF3)][Phe(4-COOH)][Bip]Q[NMeA][dL][Dab][Cha]VEC[Dab][AEEA][γGlu][AEEA]-{NH(CH2)12COOH}; thioether N-14),28.1
11,CC(=O)NCCCC[C@@H]1NC(=O)[C@H](C(C)(C)O)NC(=O)[C@H](CC2CCCCC2)NC(=O)[C@H](CCN)NC(=O)[C@@H](CC(C)C)NC(=O)[C@H](C)N(C)C(=O)[C@H](CCC(N)=O)NC(=O)[C@H](Cc2ccc(-c3ccccc3)cc2)NC(=O)[C@H](Cc2ccc(C(=O)O)cc2)NC(=O)[C@H](Cc2cccc(C(F)(F)F)c2)NC(=O)[C@H](CC(=O)O)NC(=O)[C@H](Cc2ccc(OCC(=O)O)cc2)NC(=O)[C@H]([C@H](C)N)NC(=O)CSC[C@@H](C(=O)N[C@@H](CCN)C(=O)NCCOCCOCC(=O)N[C@@H](CCC(=O)NCCOCCOCC(=O)NCCCCCCCCCCCCC(=O)O)C(=O)O)NC1=O [Example 1202] ({CH2CO}-[Abu(3S-NH2)]Y(Carboxymethyl)D[Phe(3-CF3)][Phe(4-COOH)][Bip]Q[NMeA][dL][Dab][Cha][Val(3-OH)]K(Ac)C[Dab][AEEA][γGlu][AEEA]-{NH(CH2)12COOH}; thioether N-14),16
